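Dose response: 5 concentrations. Exposure: 48 h. Format: 96-well plates. Endpoint: linear interpolation; highest concentration if not reached. GI50: concentration for 50% inhibition of growth.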 The source made the active and inactive calls. No stated cut-off is given here; in the data, active = GI50 up to about 1.1 µM and inactive = higher.
Assays:
Experiment in all cases: NCI tumour cell line growth inhibition, 48 h
[1] = test system: ACHN
[2] = test system: CAKI-1
[3] = test system: CCRF-CEM
[4] = test system: EKVX
[5] = test system: HCC 2998
[6] = test system: HT-29
[7] = test system: KM12
[8] = test system: M14
[9] = test system: NCI-H460
[10] = test system: RPMI-8226
[11] = test system: SF-539
[12] = test system: SNB-75
[13] = test system: SW-620
[14] = test system: UACC-257
[15] = test system: HOP-92
[16] = test system: SR

Row | SMILES | GI50 [1] | GI50 [2] | GI50 [3] | GI50 [4] | GI50 [5] | GI50 [6] | GI50 [7] | GI50 [8] | GI50 [9] | GI50 [10] | GI50 [11] | GI50 [12] | GI50 [13] | GI50 [14] | GI50 [15] | GI50 [16]
1 | Cc1cc(Cl)ccc1NC(=O)CC1SC(N)=NC1=O (configuration not stated) | > 100 µM (inactive) | > 100 µM (inactive) | 66.4 µM (inactive) | > 100 µM (inactive) | > 100 µM (inactive) | > 100 µM (inactive) | > 100 µM (inactive) | > 100 µM (inactive) | > 100 µM (inactive) | > 100 µM (inactive) | > 100 µM (inactive) | > 100 µM (inactive) | > 100 µM (inactive) | > 100 µM (inactive) | – | –
2 | Cc1ccc(NC(=O)C2C3C=CC(O3)C2C(=O)O)cc1 (configuration not stated) | > 100 µM (inactive) | – | 83.9 µM (inactive) | > 100 µM (inactive) | > 100 µM (inactive) | 19.8 µM (inactive) | – | > 100 µM (inactive) | > 100 µM (inactive) | 24.3 µM (inactive) | > 100 µM (inactive) | > 100 µM (inactive) | 8.83 µM (inactive) | 87.1 µM (inactive) | > 100 µM (inactive) | > 100 µM (inactive)
3 | Nc1nc2ncn(CCO)c2c(=S)[nH]1 | > 100 µM (inactive) | > 100 µM (inactive) | > 100 µM (inactive) | > 100 µM (inactive) | > 100 µM (inactive) | > 100 µM (inactive) | > 100 µM (inactive) | > 100 µM (inactive) | > 100 µM (inactive) | > 100 µM (inactive) | > 100 µM (inactive) | > 100 µM (inactive) | > 100 µM (inactive) | > 100 µM (inactive) | > 100 µM (inactive) | –
4 | CC(C)CC(=O)N1CCN(C(=O)CC(C)C)c2ccccc21 | > 100 µM (inactive) | – | > 100 µM (inactive) | > 100 µM (inactive) | > 100 µM (inactive) | > 100 µM (inactive) | > 100 µM (inactive) | – | > 100 µM (inactive) | > 100 µM (inactive) | > 100 µM (inactive) | > 100 µM (inactive) | > 100 µM (inactive) | > 100 µM (inactive) | > 100 µM (inactive) | –
5 | O=C1[C@@H](c2ccc(Cl)cc2)[C@H]2CC=C[C@H]2N1O | – | > 100 µM (inactive) | 51.2 µM (inactive) | > 100 µM (inactive) | 52.8 µM (inactive) | > 100 µM (inactive) | > 100 µM (inactive) | > 100 µM (inactive) | – | > 100 µM (inactive) | > 100 µM (inactive) | > 100 µM (inactive) | > 100 µM (inactive) | > 100 µM (inactive) | – | –
6 | O=[N+]([O-])c1ccccc1[S+]([O-])c1ccccc1 (configuration not stated) | 69.7 µM (inactive) | 60.4 µM (inactive) | 47.8 µM (inactive) | – | 97.7 µM (inactive) | 62.7 µM (inactive) | 87.9 µM (inactive) | > 100 µM (inactive) | 53 µM (inactive) | 52.5 µM (inactive) | 70.6 µM (inactive) | 22.1 µM (inactive) | > 100 µM (inactive) | 20.7 µM (inactive) | 71 µM (inactive) | 71.8 µM (inactive)
7 | CC1(C)O[C@H]2[C@H](O)C[C@](O)(CO)C[C@H]2O1 | > 100 µM (inactive) | > 100 µM (inactive) | – | > 100 µM (inactive) | – | > 100 µM (inactive) | > 100 µM (inactive) | > 100 µM (inactive) | > 100 µM (inactive) | > 100 µM (inactive) | > 100 µM (inactive) | 48.2 µM (inactive) | > 100 µM (inactive) | > 100 µM (inactive) | > 100 µM (inactive) | > 100 µM (inactive)
8 | CC1=C2C(c3ccccc3)(c3ccccc3)C3C=CC2(C=N3)N(C(=O)NC2CCCCC2)C1=O (configuration not stated) | 19.5 µM (inactive) | 12.6 µM (inactive) | 16.5 µM (inactive) | 14.8 µM (inactive) | 17.9 µM (inactive) | – | 18.1 µM (inactive) | 17.5 µM (inactive) | – | 15.9 µM (inactive) | 15.9 µM (inactive) | – | 17.3 µM (inactive) | 17.1 µM (inactive) | 13.4 µM (inactive) | 17.1 µM (inactive)
9 | CCNC1=Nc2ccc(Cl)cc2C(c2ccccc2)=NN1 | 31.7 µM (inactive) | 15 µM (inactive) | 38.4 µM (inactive) | 45.9 µM (inactive) | 18.7 µM (inactive) | 15.8 µM (inactive) | 12.9 µM (inactive) | 17.3 µM (inactive) | – | 29 µM (inactive) | 19.8 µM (inactive) | 19 µM (inactive) | 18 µM (inactive) | 18 µM (inactive) | 24.4 µM (inactive) | –
10 | CSc1nc2c(c(O)c(C)c(=O)n2C2OC(COC(C)=O)C(OC(C)=O)C(OC(C)=O)C2OC(C)=O)c(=O)n1C (configuration not stated) | > 100 µM (inactive) | > 100 µM (inactive) | > 100 µM (inactive) | > 100 µM (inactive) | > 100 µM (inactive) | > 100 µM (inactive) | > 100 µM (inactive) | > 100 µM (inactive) | > 100 µM (inactive) | < 0.01 µM (active) | > 100 µM (inactive) | > 100 µM (inactive) | > 100 µM (inactive) | > 100 µM (inactive) | > 100 µM (inactive) | –
11 | Cc1ccc(C2=C(c3ccccc3)C(O)(c3ccccc3)C(c3ccccc3)=C2c2ccc(C)cc2)cc1 | > 100 µM (inactive) | – | > 10 µM (inactive) | 64 µM (inactive) | > 100 µM (inactive) | 46.2 µM (inactive) | > 100 µM (inactive) | 83.8 µM (inactive) | > 100 µM (inactive) | 35.7 µM (inactive) | > 100 µM (inactive) | > 100 µM (inactive) | > 100 µM (inactive) | > 100 µM (inactive) | – | > 100 µM (inactive)
12 | CC(C)(C)c1cc(-c2c3nc(c(-c4cc(C(C)(C)C)cc(C(C)(C)C)c4)c4ccc([nH]4)c(-c4cc(C(C)(C)C)cc(C(C)(C)C)c4)c4nc(c(-c5cc(C(C)(C)C)cc(C(C)(C)C)c5)c5ccc2[nH]5)C=C4)C=C3)cc(C(C)(C)C)c1 | > 100 µM (inactive) | > 100 µM (inactive) | > 100 µM (inactive) | > 100 µM (inactive) | > 100 µM (inactive) | > 100 µM (inactive) | > 100 µM (inactive) | > 100 µM (inactive) | > 100 µM (inactive) | > 100 µM (inactive) | > 100 µM (inactive) | > 100 µM (inactive) | > 100 µM (inactive) | > 100 µM (inactive) | > 100 µM (inactive) | > 100 µM (inactive)
13 | ON=C1CCC(c2ccccc2)CC1 (configuration not stated) | > 100 µM (inactive) | > 100 µM (inactive) | > 100 µM (inactive) | > 100 µM (inactive) | > 100 µM (inactive) | > 100 µM (inactive) | > 100 µM (inactive) | > 100 µM (inactive) | > 100 µM (inactive) | – | > 100 µM (inactive) | > 100 µM (inactive) | > 100 µM (inactive) | > 100 µM (inactive) | > 100 µM (inactive) | –
14 | O=[N+]([O-])c1c(/C=N/c2ccccc2)oc(-c2ccc3c(c2)OCO3)c1-c1ccc2c(c1)OCO2 | > 100 µM (inactive) | > 100 µM (inactive) | – | – | > 100 µM (inactive) | > 100 µM (inactive) | > 100 µM (inactive) | > 100 µM (inactive) | > 100 µM (inactive) | > 100 µM (inactive) | > 100 µM (inactive) | 50.2 µM (inactive) | > 100 µM (inactive) | > 100 µM (inactive) | 65.6 µM (inactive) | > 100 µM (inactive)
15 | O=C(O)COc1ccc(C(=O)/C(SS/C(C(=O)c2ccc(OCC(=O)O)c(Cl)c2Cl)=C2\C=C(c3ccc(Cl)cc3)SS2)=C2/C=C(c3ccc(Cl)cc3)SS2)c(Cl)c1Cl | 8.39 µM (inactive) | 28.1 µM (inactive) | 2.29 µM (inactive) | 57.1 µM (inactive) | 12.4 µM (inactive) | 34.5 µM (inactive) | 16 µM (inactive) | 13.5 µM (inactive) | 19.1 µM (inactive) | 22.3 µM (inactive) | 5.9 µM (inactive) | 11.1 µM (inactive) | 0.435 µM (active) | 78.2 µM (inactive) | 4.22 µM (inactive) | –
16 | CCN(CC)CCOc1ccc(C(=C2CCCCC2)c2ccc(OCCN(CC)CC)cc2)cc1 | 1.75 µM (inactive) | 1.96 µM (inactive) | 0.931 µM (active) | 1.74 µM (inactive) | 1.3 µM (inactive) | 1.1 µM (active) | 1.27 µM (inactive) | 1.55 µM (inactive) | 1.47 µM (inactive) | 0.7 µM (active) | 1.55 µM (inactive) | 1.45 µM (inactive) | 1.25 µM (inactive) | 1.87 µM (inactive) | 2.02 µM (inactive) | –
17 | CN(C)c1ccc(Cc2cc(C(C)(C)C)cc(C(C)(C)C)c2O)cc1 | 16.6 µM (inactive) | 19.1 µM (inactive) | 60.1 µM (inactive) | 22.1 µM (inactive) | 19.6 µM (inactive) | 16.1 µM (inactive) | 12.2 µM (inactive) | 18.1 µM (inactive) | 18.5 µM (inactive) | 11.5 µM (inactive) | 20.8 µM (inactive) | 31.2 µM (inactive) | 16.9 µM (inactive) | 15.6 µM (inactive) | – | 14.6 µM (inactive)
18 | C=C(C)[C@H](O)C(O)CC(C)[C@@H]1CCC23CC12CCC1[C@@]2(C)CCC(OC(C)=O)C(C)(C)C2CC(OC2OC(COC(C)=O)C(O)C(O)C2O)[C@]13C (some centres not stated) | 6.61 µM (inactive) | 6.22 µM (inactive) | 2.62 µM (inactive) | 6.67 µM (inactive) | 6.35 µM (inactive) | 3.06 µM (inactive) | 5.47 µM (inactive) | 3.41 µM (inactive) | 4.78 µM (inactive) | 1.5 µM (inactive) | 6.67 µM (inactive) | 3.4 µM (inactive) | 6.14 µM (inactive) | 6.01 µM (inactive) | 5.37 µM (inactive) | –

From ChEMBL document CHEMBL1201862, “PubChem BioAssay data set” (2004)
